Reference: patent publication US20140243403A1, “TREATING COLORECTAL, PANCREATIC, AND LUNG CANCER” (The General Hospital Corporation, priority 2011, published 2014)

Columns and labels:
Assay in all cases: Cellular proliferation and viability, CRC cell line panel
Type in all cases: cell-based, human
SW48 cells = conditions: KRAS WT, BRAF WT, APC WT, CTNNB1 S33Y, 3 days post-treatment
Experimental: (§1) (A) IC50 values (μM) for effects on cellular proliferation and viability with the TAK1 kinase inhibitor 5z-7-oxozeaenol in a panel of colon cancer cell lines that have been genotyped as KRAS mutant (KRAS-independent—circles or KRAS-dependent—squares), BRAF mutant (triangles) or wild-type for both KRAS and BRAF (OTHER—diamonds). Effects on growth were measured 3 days post-treatment. Data are represented as the mean of 3 independent experiments and error bars indicate the median±interquartile range. *denotes p<0.00001; n.s.—not significant.
(§2) To further validate TAK1 as a candidate therapeutic target in this context, a potent and selective TAK1 kinase inhibitor, 5Z-7-oxozeaenol (Rawlins et al., 1999), was used. Sensitivity to 5Z-7-oxozeaenol was tested in a panel of 47 colon cancer cell lines with various genotypes (FIGS. 3A and 9A). KRAS and BRAF genotypes were either procured from the Sanger Institute's Catalog of Somatic Mutations (COSMIC) or determined by targeted resequencing (Table 2). KRAS mutation status was determined as described above; the same methods were used to determine the mutation states of BRAF. BRAF exon15 was sequenced with TCATAATGCTTGCTCTGATAGGA (forward; SEQ ID NO:3) and GGCCAAAAATTTAATCAGTGG (reverse; SEQ ID NO:4).

OUMS-23 cells = conditions: KRAS WT, BRAF WT, 3 days post-treatment
Experimental: as §1, §2

HCT-8 cells = conditions: KRAS G13D, BRAF WT, APC del, CTNNB1 WT, 3 days post-treatment
Experimental: as §1, §2

HT29 cells = conditions: KRAS WT, BRAF V600E, APC del, CTNNB1 WT, 3 days post-treatment
Experimental: as §1, §2

LoVo cells = conditions: KRAS G13D (KRAS-dependent), BRAF WT, APC del, CTNNB1 WT, 3 days post-treatment
Experimental: as §1, §2

C2BBe1 cells = conditions: KRAS WT, BRAF WT, APC del, CTNNB1 WT, 3 days post-treatment
Experimental: as §1, §2

LS-180 cells = conditions: KRAS G12D, BRAF WT, APC WT, CTNNB1 S45A, 3 days post-treatment
Experimental: as §1, §2

COLO-205 cells = conditions: KRAS WT, BRAF V600E, APC del, CTNNB1 WT, 3 days post-treatment
Experimental: as §1, §2

CCK-81 cells = conditions: KRAS WT, BRAF WT, 3 days post-treatment
Experimental: as §1, §2

SW1116 cells = conditions: KRAS G12A (KRAS-dependent), BRAF WT, APC del, CTNNB1 WT, 3 days post-treatment
Experimental: as §1, §2

WiDR cells = conditions: KRAS WT, BRAF V600E, APC del, CTNNB1 WT, 3 days post-treatment
Experimental: as §1, §2

MDST8 cells = conditions: KRAS WT, BRAF V600K, APC nd, CTNNB1 WT, 3 days post-treatment
Experimental: as §1, §2

T84 cells = conditions: KRAS G13D, BRAF WT, APC del, CTNNB1 WT, 3 days post-treatment
Experimental: as §1, §2

RKO cells = conditions: KRAS WT, BRAF V600E, APC del, CTNNB1 WT, 3 days post-treatment
Experimental: as §1, §2

SW620 cells = conditions: KRAS G12V (KRAS-dependent), BRAF WT, APC del, CTNNB1 WT, 3 days post-treatment
Experimental: as §1, §2

SW948 cells = conditions: KRAS Q61L, BRAF WT, APC del, CTNNB1 WT, 3 days post-treatment
Experimental: as §1, §2

Hs 257.T cells = conditions: KRAS G13D, BRAF WT, 3 days post-treatment
Experimental: as §1, §2

COLO-741 cells = conditions: KRAS WT, BRAF V600E, 3 days post-treatment
Experimental: as §1, §2

HCT-15 cells = conditions: KRAS G13D, BRAF WT, APC del, CTNNB1 WT, 3 days post-treatment
Experimental: as §1, §2

HRT-18 cells = conditions: KRAS G13D, BRAF WT, APC del, CTNNB1 WT, 3 days post-treatment
Experimental: as §1, §2

HT115 cells = conditions: KRAS WT, BRAF WT, APC WT, CTNNB1 WT, 3 days post-treatment
Experimental: as §1, §2

HT55 cells = conditions: KRAS WT, BRAF WT, APC del, CTNNB1 WT, 3 days post-treatment
Experimental: as §1, §2

CL-40 cells = conditions: KRAS G12D (KRAS-dependent), BRAF WT, 3 days post-treatment
Experimental: as §1, §2

Caco-2 cells = conditions: KRAS WT, BRAF V600E, CTNNB1 WT, 3 days post-treatment
Experimental: as §1, §2

CaR-1 cells = conditions: KRAS WT, BRAF WT, 3 days post-treatment
Experimental: as §1, §2

HCC56 cells = conditions: KRAS G12V, BRAF WT, 3 days post-treatment
Experimental: as §1, §2

SW837 cells = conditions: KRAS G12C, BRAF WT, APC del, CTNNB1 WT, 3 days post-treatment
Experimental: as §1, §2

CoCM-1 cells = conditions: KRAS WT, BRAF WT, APC WT, CTNNB1 WT, 3 days post-treatment
Experimental: as §1, §2

CL-11 cells = conditions: KRAS V14I (KRAS-dependent), BRAF WT, CTNNB1 WT, 3 days post-treatment
Experimental: as §1, §2

COLO-206F cells = conditions: KRAS WT, BRAF V600E, 3 days post-treatment
Experimental: as §1, §2

How did the IC50 (SW48 cells) turn out when COc1cc(O)c2c(c1)/C=C/C[C@H](O)[C@H](O)C(=O)/C=C\C[C@H](C)OC2=O [5Z-7-oxozeaenol] was run?
The IC50 was 1940 nM.

What about the IC50 (OUMS-23 cells) of the same molecule?
The IC50 was 48400 nM.

And the IC50 (HCT-8 cells)?
The IC50 was 47300 nM.

What about the IC50 (HT29 cells) of the same molecule?
The IC50 was 7880 nM.

What about the IC50 (LoVo cells) of the same molecule?
The IC50 was 106 nM.

And the IC50 (C2BBe1 cells)?
Its IC50 is 9320 nM.

What about the IC50 (LS-180 cells) of the same molecule?
Its IC50 is 6740 nM.

And the IC50 (COLO-205 cells)?
Its IC50 is 1300 nM.

What about the IC50 (CCK-81 cells) of the same molecule?
Its IC50 is 412 nM.

And the IC50 (SW1116 cells)?
Its IC50 is 122 nM.

And the IC50 (WiDR cells)?
The IC50 was 2480 nM.

And the IC50 (MDST8 cells)?
Its IC50 is 226 nM.

What about the IC50 (T84 cells) of the same molecule?
The IC50 was 2810 nM.

What about the IC50 (RKO cells) of the same molecule?
Its IC50 is 1100 nM.

What about the IC50 (SW620 cells) of the same molecule?
The IC50 was 93 nM.

And the IC50 (SW948 cells)?
The IC50 was 2320 nM.

What about the IC50 (Hs 257.T cells) of the same molecule?
The IC50 was 3200 nM.

What about the IC50 (COLO-741 cells) of the same molecule?
The IC50 was 1820 nM.

What about the IC50 (HCT-15 cells) of the same molecule?
The IC50 was 8200 nM.

What about the IC50 (HRT-18 cells) of the same molecule?
Its IC50 is 60000 nM.

What about the IC50 (HT115 cells) of the same molecule?
Its IC50 is 1330 nM.

And the IC50 (HT55 cells)?
The IC50 was 1540 nM.

And the IC50 (CL-40 cells)?
The IC50 was 482 nM.

What about the IC50 (Caco-2 cells) of the same molecule?
The IC50 was 1440 nM.

And the IC50 (CaR-1 cells)?
The IC50 was 6080 nM.

And the IC50 (HCC56 cells)?
The IC50 was 2340 nM.

What about the IC50 (SW837 cells) of the same molecule?
The IC50 was 5950 nM.

What about the IC50 (CoCM-1 cells) of the same molecule?
The IC50 was 926 nM.

What about the IC50 (CL-11 cells) of the same molecule?
The IC50 was 1160 nM.

What about the IC50 (COLO-206F cells) of the same molecule?
Its IC50 is 509 nM.
